Experimental data from ChEMBL document CHEMBL1201862, “PubChem BioAssay data set” (2004).
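Five compound concentrations were applied to cells in 96-well plates for 48 hours; endpoints were derived by simple linear interpolation of the resulting dose-response curve. At the GI50, growth is halved.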 The source made the active and inactive calls. No stated cut-off is given here; in the data, active = GI50 up to about 1.1 µM and inactive = higher.

Experiments:
Assay in all cases: NCI tumour cell line growth inhibition, 48 h
[1] = tested on: A498
[2] = tested on: A549
[3] = tested on: CAKI-1
[4] = tested on: CCRF-CEM
[5] = tested on: COLO 205
[6] = tested on: DLD-1
[7] = tested on: DMS-114
[8] = tested on: DMS-273
[9] = tested on: EKVX
[10] = tested on: HCC 2998
[11] = tested on: HCT-116
[12] = tested on: HCT-15
[13] = tested on: HL-60
[14] = tested on: HOP-18
[15] = tested on: HOP-62
[16] = tested on: HOP-92
[17] = tested on: HT-29
[18] = tested on: IGROV-1
[19] = tested on: K562
[20] = tested on: KM-20L2
[21] = tested on: KM12
[22] = tested on: LOX IMVI
[23] = tested on: M19-MEL
[24] = tested on: MCF7
[25] = tested on: MOLT-4
[26] = tested on: Malme-3M
[27] = tested on: NCI-H23
[28] = tested on: NCI-H460
[29] = tested on: NCI-H522
[30] = tested on: NCI/ADR-RES
[31] = tested on: OVCAR-3
[32] = tested on: OVCAR-4
[33] = tested on: OVCAR-5
[34] = tested on: OVCAR-8
[35] = tested on: RPMI-8226
[36] = tested on: RXF 393
[37] = tested on: SF-268
[38] = tested on: SF-295
[39] = tested on: SF-539
[40] = tested on: SK-MEL-28
[41] = tested on: SK-MEL-2
[42] = tested on: SK-MEL-5
[43] = tested on: SK-OV-3
[44] = tested on: SN12C
[45] = tested on: SNB-19
[46] = tested on: SNB-75
[47] = tested on: SNB-78
[48] = tested on: SW-620
[49] = tested on: U-251
[50] = tested on: UACC-257
[51] = tested on: UACC-62
[52] = tested on: UO-31
[53] = tested on: XF498
[54] = tested on: 786-0
[55] = tested on: ACHN
[56] = tested on: LXFL 529
[57] = tested on: M14
[58] = tested on: TK-10
[59] = tested on: NCI-H226

O=NN(CCF)C(=O)NC1CC2CCC1C2 (stereo unspecified)
GI50 [1]: > 100 µM (inactive)
GI50 [2]: > 100 µM (inactive)
GI50 [3]: > 100 µM (inactive)
GI50 [4]: 38.3 µM (inactive)
GI50 [5]: > 100 µM (inactive)
GI50 [6]: > 87.7 µM (inactive)
GI50 [7]: > 100 µM (inactive)
GI50 [8]: > 100 µM (inactive)
GI50 [9]: > 100 µM (inactive)
GI50 [10]: > 100 µM (inactive)
GI50 [11]: > 100 µM (inactive)
GI50 [12]: > 74.3 µM
GI50 [13]: 38.7 µM (inactive)
GI50 [14]: > 100 µM (inactive)
GI50 [15]: > 84.1 µM (inactive)
GI50 [16]: > 100 µM (inactive)
GI50 [17]: > 100 µM (inactive)
GI50 [18]: > 72.9 µM (inactive)
GI50 [19]: > 53 µM (inactive)
GI50 [20]: > 100 µM (inactive)
GI50 [21]: > 100 µM (inactive)
GI50 [22]: 84.7 µM (inactive)
GI50 [23]: > 100 µM (inactive)
GI50 [24]: 98.9 µM (inactive)
GI50 [25]: > 100 µM (inactive)
GI50 [26]: > 100 µM (inactive)
GI50 [27]: > 100 µM (inactive)
GI50 [28]: > 100 µM (inactive)
GI50 [29]: 73.6 µM (inactive)
GI50 [30]: > 100 µM (inactive)
GI50 [31]: > 100 µM (inactive)
GI50 [32]: > 100 µM (inactive)
GI50 [33]: > 100 µM (inactive)
GI50 [34]: > 100 µM (inactive)
GI50 [35]: > 54.3 µM (inactive)
GI50 [36]: > 100 µM (inactive)
GI50 [37]: > 100 µM (inactive)
GI50 [38]: > 100 µM (inactive)
GI50 [39]: > 100 µM (inactive)
GI50 [40]: > 100 µM (inactive)
GI50 [41]: > 100 µM (inactive)
GI50 [42]: > 100 µM (inactive)
GI50 [43]: > 100 µM (inactive)
GI50 [44]: > 100 µM (inactive)
GI50 [45]: > 100 µM (inactive)
GI50 [46]: > 100 µM (inactive)
GI50 [47]: > 100 µM (inactive)
GI50 [48]: > 100 µM (inactive)
GI50 [49]: > 100 µM (inactive)
GI50 [50]: > 100 µM (inactive)
GI50 [51]: 86.9 µM (inactive)
GI50 [52]: > 100 µM (inactive)
GI50 [53]: < 0.01 µM (active)

Cc1cc(C)nc(NS(=O)(=O)c2ccc(NC(=O)c3cccc4c(Nc5ccc(S(=O)(=O)Nc6nc(C)cc(C)n6)cc5)c5ccc(Cl)cc5nc34)cc2)n1
GI50 [54]: 28.4 µM (inactive)
GI50 [1]: 45 µM (inactive)
GI50 [2]: 41.1 µM (inactive)
GI50 [55]: 27.3 µM (inactive)
GI50 [3]: 19.5 µM (inactive)
GI50 [4]: 27.5 µM (inactive)
GI50 [5]: 33.8 µM (inactive)
GI50 [6]: 33.7 µM (inactive)
GI50 [7]: 25.1 µM (inactive)
GI50 [8]: 77.6 µM (inactive)
GI50 [9]: 29.5 µM (inactive)
GI50 [10]: 36.6 µM (inactive)
GI50 [11]: 28.1 µM (inactive)
GI50 [12]: 75.5 µM
GI50 [14]: > 100 µM (inactive)
GI50 [15]: 24.4 µM (inactive)
GI50 [16]: 28 µM (inactive)
GI50 [17]: 40.6 µM (inactive)
GI50 [18]: 46.2 µM (inactive)
GI50 [19]: 26.1 µM (inactive)
GI50 [20]: 40.5 µM (inactive)
GI50 [21]: 33.1 µM (inactive)
GI50 [22]: 29.2 µM (inactive)
GI50 [56]: 33 µM (inactive)
GI50 [57]: 37.4 µM (inactive)
GI50 [23]: 37.8 µM (inactive)
GI50 [25]: 33.3 µM (inactive)
GI50 [26]: 16.4 µM (inactive)
GI50 [27]: 39.4 µM (inactive)
GI50 [28]: 37 µM (inactive)
GI50 [29]: 15.6 µM (inactive)
GI50 [31]: 17.5 µM (inactive)
GI50 [32]: 35.6 µM (inactive)
GI50 [33]: > 100 µM (inactive)
GI50 [34]: 34.7 µM (inactive)
GI50 [35]: 28.2 µM (inactive)
GI50 [36]: 78.3 µM (inactive)
GI50 [37]: 28.6 µM (inactive)
GI50 [38]: 38 µM (inactive)
GI50 [39]: 37.8 µM (inactive)
GI50 [40]: 29.6 µM (inactive)
GI50 [41]: 34 µM (inactive)
GI50 [42]: 20.1 µM (inactive)
GI50 [43]: 26.7 µM (inactive)
GI50 [44]: 35.5 µM (inactive)
GI50 [45]: 28.1 µM (inactive)
GI50 [46]: 17.1 µM (inactive)
GI50 [47]: 39.4 µM (inactive)
GI50 [48]: 54.1 µM (inactive)
GI50 [58]: 30.8 µM (inactive)
GI50 [49]: 27.5 µM (inactive)
GI50 [50]: 20.8 µM (inactive)
GI50 [51]: 23.1 µM (inactive)
GI50 [52]: 13.4 µM (inactive)
GI50 [53]: 23.1 µM (inactive)

CCOC(=O)C1=C(C(C)=O)CSC(c2ccccc2)=N1
GI50 [1]: > 100 µM (inactive)
GI50 [2]: > 100 µM (inactive)
GI50 [3]: > 100 µM (inactive)
GI50 [4]: > 100 µM (inactive)
GI50 [5]: > 100 µM (inactive)
GI50 [6]: > 100 µM (inactive)
GI50 [7]: > 100 µM (inactive)
GI50 [8]: > 100 µM (inactive)
GI50 [9]: > 100 µM (inactive)
GI50 [10]: > 100 µM (inactive)
GI50 [11]: > 100 µM (inactive)
GI50 [12]: > 100 µM
GI50 [13]: > 100 µM (inactive)
GI50 [14]: > 100 µM (inactive)
GI50 [16]: > 100 µM (inactive)
GI50 [17]: > 100 µM (inactive)
GI50 [18]: > 100 µM (inactive)
GI50 [19]: > 100 µM (inactive)
GI50 [20]: > 100 µM (inactive)
GI50 [21]: > 100 µM (inactive)
GI50 [22]: > 100 µM (inactive)
GI50 [23]: > 100 µM (inactive)
GI50 [24]: 40.7 µM (inactive)
GI50 [25]: > 100 µM (inactive)
GI50 [26]: > 100 µM (inactive)
GI50 [59]: > 89.7 µM (inactive)
GI50 [27]: 98.4 µM (inactive)
GI50 [28]: > 100 µM (inactive)
GI50 [29]: > 100 µM (inactive)
GI50 [30]: > 100 µM (inactive)
GI50 [31]: > 100 µM (inactive)
GI50 [32]: > 100 µM (inactive)
GI50 [33]: > 100 µM (inactive)
GI50 [34]: > 100 µM (inactive)
GI50 [35]: > 100 µM (inactive)
GI50 [36]: > 100 µM (inactive)
GI50 [37]: > 100 µM (inactive)
GI50 [38]: > 100 µM (inactive)
GI50 [39]: > 100 µM (inactive)
GI50 [40]: > 100 µM (inactive)
GI50 [41]: > 100 µM (inactive)
GI50 [42]: > 100 µM (inactive)
GI50 [43]: > 100 µM (inactive)
GI50 [44]: > 100 µM (inactive)
GI50 [45]: > 100 µM (inactive)
GI50 [46]: > 100 µM (inactive)
GI50 [47]: > 63.2 µM (inactive)
GI50 [48]: > 100 µM (inactive)
GI50 [49]: > 100 µM (inactive)
GI50 [50]: > 100 µM (inactive)
GI50 [51]: > 100 µM (inactive)
GI50 [52]: 97.9 µM (inactive)
GI50 [53]: > 100 µM (inactive)
